# System: library of 8380 IKZF3 degrons fused to EGFP in Jurkat cells
# Experiment: Pooled mutant ZF degron library screen (FACS EGFPlow vs EGFP+, NGS), 18 h;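 for logFC: Log2 fold change of EGFPlow over EGFP+ representation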
# Type: cell-based, human
# Conditions: for Log2FC: WT degron, residues 146/147/149/150/152/153/154/155/167: FQNQGASFL
structure (smiles),measurement,setting,value
"O=C1CCC(N2C(=O)c3ccccc3C2=O)C(=O)N1 (stereo not shown) [Compound 1, thalidomide, reference compound]",Log2FC,listed as Thal,1.13
same,Log2FC,listed as Thalidomide,1.1337
same,logFC,degron residues 146/147/149/150/152/153/154/155/167: FADIGAAFL,-0.52
same,logFC,"degron residues 146/147/149/150/152/153/154/155/167: FADIGAAFL, listed as A32",-0.5175
same,logFC,degron residues 146/147/149/150/152/153/154/155/167: FADIGACFL,-1.27
same,logFC,"degron residues 146/147/149/150/152/153/154/155/167: FADIGACFL, listed as A32",-1.269
same,logFC,degron residues 146/147/149/150/152/153/154/155/167: FADIGADFL,-2.30
same,logFC,"degron residues 146/147/149/150/152/153/154/155/167: FADIGADFL, listed as A32",-2.302
same,logFC,degron residues 146/147/149/150/152/153/154/155/167: FADIGAEFL,-1.72
same,logFC,"degron residues 146/147/149/150/152/153/154/155/167: FADIGAEFL, listed as A32",-1.72
same,logFC,degron residues 146/147/149/150/152/153/154/155/167: FADIGAFFL,-2.34
same,logFC,degron residues 146/147/149/150/152/153/154/155/167: FADIGAGFL,-1.45
same,logFC,degron residues 146/147/149/150/152/153/154/155/167: FADIGAHFL,-1.89
same,logFC,degron residues 146/147/149/150/152/153/154/155/167: FADIGAIFL,-1.38
same,logFC,degron residues 146/147/149/150/152/153/154/155/167: FADIGAKFL,-0.77
same,logFC,degron residues 146/147/149/150/152/153/154/155/167: FADIGALFL,-1.99
same,logFC,degron residues 146/147/149/150/152/153/154/155/167: FADIGAMFL,-1.81
same,logFC,degron residues 146/147/149/150/152/153/154/155/167: FADIGANFL,-1.52
same,logFC,degron residues 146/147/149/150/152/153/154/155/167: FADIGAPFL,0.38
same,logFC,degron residues 146/147/149/150/152/153/154/155/167: FADIGAQFL,-1.14
same,logFC,degron residues 146/147/149/150/152/153/154/155/167: FADIGARFL,-0.98
same,logFC,degron residues 146/147/149/150/152/153/154/155/167: FADIGASFL,-1.01
same,logFC,degron residues 146/147/149/150/152/153/154/155/167: FADIGATFL,-1.50
same,logFC,degron residues 146/147/149/150/152/153/154/155/167: FADIGAVFL,-1.28
same,logFC,degron residues 146/147/149/150/152/153/154/155/167: FADIGAWFL,-2.70
same,logFC,degron residues 146/147/149/150/152/153/154/155/167: FADIGAYFL,-1.46
same,logFC,degron residues 146/147/149/150/152/153/154/155/167: FADQGAAFL,-3.14
same,logFC,degron residues 146/147/149/150/152/153/154/155/167: FADQGACFL,-2.81
same,logFC,degron residues 146/147/149/150/152/153/154/155/167: FADQGADFL,-2.96
same,logFC,degron residues 146/147/149/150/152/153/154/155/167: FADQGAEFL,-3.47
same,logFC,degron residues 146/147/149/150/152/153/154/155/167: FADQGAFFL,-3.47
same,logFC,degron residues 146/147/149/150/152/153/154/155/167: FADQGAGFL,-2.45
same,logFC,degron residues 146/147/149/150/152/153/154/155/167: FADQGAHFL,-3.40
same,logFC,degron residues 146/147/149/150/152/153/154/155/167: FADQGAIFL,-2.61
same,logFC,degron residues 146/147/149/150/152/153/154/155/167: FADQGAKFL,-2.20
same,logFC,degron residues 146/147/149/150/152/153/154/155/167: FADQGALFL,-2.67
same,logFC,degron residues 146/147/149/150/152/153/154/155/167: FADQGAMFL,-2.56
same,logFC,degron residues 146/147/149/150/152/153/154/155/167: FADQGANFL,-3.17
same,logFC,degron residues 146/147/149/150/152/153/154/155/167: FADQGAPFL,-2.41
same,logFC,degron residues 146/147/149/150/152/153/154/155/167: FADQGAQFL,-3.13
same,logFC,degron residues 146/147/149/150/152/153/154/155/167: FADQGARFL,-2.69
same,logFC,degron residues 146/147/149/150/152/153/154/155/167: FADQGASFL,-3.41
same,logFC,degron residues 146/147/149/150/152/153/154/155/167: FADQGATFL,-2.79
same,logFC,degron residues 146/147/149/150/152/153/154/155/167: FADQGAVFL,-2.29
same,logFC,degron residues 146/147/149/150/152/153/154/155/167: FADQGAWFL,-2.86
same,logFC,degron residues 146/147/149/150/152/153/154/155/167: FADQGAYFL,-2.43
same,logFC,degron residues 146/147/149/150/152/153/154/155/167: FADVGAAFL,-1.13
same,logFC,degron residues 146/147/149/150/152/153/154/155/167: FADVGACFL,-2.56
same,logFC,degron residues 146/147/149/150/152/153/154/155/167: FADVGADFL,-2.99
same,logFC,degron residues 146/147/149/150/152/153/154/155/167: FADVGAEFL,-2.38
same,logFC,degron residues 146/147/149/150/152/153/154/155/167: FADVGAFFL,-1.98
same,logFC,degron residues 146/147/149/150/152/153/154/155/167: FADVGAGFL,-2.06
